One experiment has as its system endogenous CARP-1. Description: Anti-EGFP co-immunoprecipitation with endogenous CARP-1. Format: cell-based, human. To be noted: MDA-MB-468 stable subline, anti-EGFP IP, anti-CARP-1 (α2) WB; Figure 5D. How it is done:
(§1) Logarithmically growing cells were either untreated or treated with different agents for various time periods. The cells were lysed to prepare protein extracts. IP was carried out by incubating approximately 1 mg of the protein lysate with appropriate antibodies. The immunoprecipitates were then analyzed by SDS-PAGE, followed by WB with respective, interacting protein. For Gst-pulldown, Gst-H2AX or various His-TAT-HA-tagged CARP-1 peptides were generated in Escherichia coli (E. coli) BL21 cells essentially as described by us previously. Briefly, the competent E. coli BL-21 (DE3) pLysS cells were transformed separately with various recombinant pGEX-4T-1 or pTAT-HA constructs. The transformed cells were then subjected to selection by combined presence of ampicillin and chloramphenicol; various isolates for each transformation were obtained and bacterial lysates were characterized for expression of fusion peptides. Cells from each isolate were grown in 4 mL of LB medium containing ampicillin only until the optical density (OD)600 reached 0.4–0.8. Expression of fusion peptides was induced over 2–4 h incubation periods after Isopropyl β-D-1-thiogalactopyranoside (IPTG) addition. […]
Figure 5 Fine Mapping of H2AX/CARP-1 interacting epitopes. […] Following stringent washing, the bound proteins were analyzed with WB using anti-HA (upper) or anti-Gst (middle) antibodies. […]

The test system of experiment [1] is CARP-1, phospho-JNK1/2, phospho-H2AX. Description: Western blot of CARP-1, phospho-JNK1/2, γH2AX in HeLa. Particulars: 10 μM, WB. Format: cell-based, human. How it is done:
as §1, with “0.4–0.8.” for “0.4–0.8. Expression of fusion peptides was induced over 2–4 h incubation periods after Isopropyl β-D-1-thiogalactopyranoside (IPTG) addition.”
Here, we utilized human TNBC MDA-MB-468 and human cervical cancer HeLa cells to conduct an MTT-based dose-response analysis using Adriamycin and CFM compounds. […] The cell lysates from the control, untreated, and treated cells were analyzed by WB for expression of CARP-1, phospho-JNK1/2, phospho-H2AX, and poly ADP ribose polymerase (PARP) proteins. […]
On the technique in general: Immunoblotting shows a protein as a band on a membrane.

A further experiment has as its system MDA-MB-468 cells. Particulars: 10 μM dose, ref [16]; cited from earlier work. The source says:
Here, we utilized human TNBC MDA-MB-468 and human cervical cancer HeLa cells to conduct an MTT-based dose-response analysis using Adriamycin and CFM compounds. […] Since Adriamyci ...

No end group written: not given here.

For the compound “EGFP-H2AX (1–35): EGFP-tagged fusion protein stably expressed in MDA-MB-468 and HeLa sublines (MSGRGKTGGKARAKAKSRSSRAGLQFPVGRVHRLL; also: EGFP fusion, end not given here; UniProt P16104 1-35, looked up, fragment)”, the “in-cell interaction with endogenous CARP-1” value in the experiment on endogenous CARP-1 is “robust, in vivo interaction”.

Consider `COc1cccc2c1C(=O)c1c(O)c3c(c(O)c1C2=O)C[C@@](O)(C(=O)CO)C[C@@H]3O[C@H]1C[C@H](N)[C@H](O)[C@H](C)O1` [Adriamycin, doxorubicin, reference compound], for which, in experiment [1], the “expression of CARP-1, phospho-JNK1/2, phospho-H2AX” value was “stimulated expression of CARP-1, phospho-JNK1/2, and phospho-H2AX in a time-dependent manner”.

Regarding `O=C1N(Cc2ccccc2Cl)c2ccccc2C12NN=C(c1cccc(Cl)c1)S2` (stereo not shown) [CFM-4.16], in the experiment with MDA-MB-468 cells, the inhibition of growth entry is “robust inhibition of growth”. For the same compound, the “expression of CARP-1, phospho-JNK1/2, phospho-H2AX” value in experiment [1] is “stimulated expression of CARP-1, phospho-JNK1/2, and phospho-H2AX in a time-dependent manner”.
